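Protocol summary: plate cells (96-well), add compound at 5 concentrations, incubate 48 h, interpolate endpoints linearly. The concentration for 50% growth inhibition is given as GI50. The concentration for full growth arrest is given as TGI.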
Tests used:
Experiment in all cases: NCI anticancer screen, dose series, 48 h
[1] = tested on: K-562 leukemia
[2] = tested on: HT29 colon
[3] = tested on: SF-295 CNS
[4] = tested on: OVCAR-3 ovarian
[5] = tested on: SK-MEL-28 melanoma
[6] = tested on: CCRF-CEM leukemia
[7] = tested on: NCI-H522 lung
[8] = tested on: TK-10 renal
[9] = tested on: MOLT-4 leukemia
[10] = tested on: OVCAR-5 ovarian

SMILES	GI50 [1]	TGI [1]	GI50 [2]	TGI [2]	GI50 [3]	TGI [3]	GI50 [4]	TGI [4]	GI50 [5]	TGI [5]	GI50 [6]	TGI [6]	GI50 [7]	TGI [7]	GI50 [8]	TGI [8]	GI50 [9]	GI50 [10]	TGI [10]	TGI [9]
NCCCn1c2c(c3ccc([N+](=O)[O-])cc3c1=O)C(=O)c1cc(F)ccc1-2	< 20.5 nM	331 nM	< 15.3 nM	515 nM	15.7 nM	142 nM	31 nM	152 nM	229 nM	1540 nM	< 14.4 nM	779 nM	< 10 nM	116 nM	372 nM	2700 nM	< 10 nM	122 nM	710 nM	–
CN1C(=O)CN2C(Cl)(Cl)C2(c2ccccc2)c2cc(Cl)ccc21 (centres undefined)	–	> 100000 nM	–	> 100000 nM	–	> 100000 nM	–	> 100000 nM	–	> 100000 nM	–	> 100000 nM	–	> 100000 nM	–	> 100000 nM	–	–	> 100000 nM	91900 nM

From PubChem BioAssay (NCI)
